Assay results reported in patent US20130030017A1, “QUINOLINE DERIVATIVES AS ANTIBACTERIAL AGENTS” (priority 2005, published 2013).
≈ marks a conversion by molar mass, not a printed value.

How the values were obtained:
[1] = tested on: Staphylococcus aureus (ATCC29213); assay: Microtitre plate assay, IC90 determination (STA 29213); type: cell-based; settings: 90% inhibitory concentration for bacterial growth, 37° C., resazurin fluorescence; for IC90 STA 29213: 24 hours; for IC90: Staphylococcus aureus, ATCC29213, 24 h
Experimental: (§1) The bacteria used in this study were grown overnight in flasks containing 100 ml Mueller-Hinton Broth (Becton Dickinson—cat. no. 275730) in sterile de-ionized water, with shaking, at 37° C. Stocks (0.5 ml/tube) were stored at −70° C. until use. Bacteria titrations were performed in microtiter plates and colony forming units (CFUs) were determined. In general, an inoculum level of approximately 100 CFUs was used for susceptibility testing.
(§2) Flat-bottom, sterile 96-well plastic microtiter plates were filled with 180 μl of sterile deionized water, supplemented with 0.25% BSA. Subsequently, stock solutions (7.8× final test concentration) of compounds were added in 45 μl volumes in column 2 Serial five-fold dilutions (45 μl in 180 μl) were made directly in the microtiter plates from column 2 to reach column 11. Untreated control samples with (column 1) and without (column 12) inoculum were included in each microtiter plate. Depending on the bacteria type, approximately 10 to 60 CFU per well of bacteria inoculum (100 TCID50), in a volume of 100 μl in 2.8× Mueller-Hinton broth medium, was added to the rows A to H, except column 12. The same volume of broth medium without inoculum was added to column 12 in row A to H. The cultures were incubated at 37° C. for 24 hours under a normal atmosphere (incubator with open air valve and continuous ventilation). At the end of incubation, one day after inoculation, the bacterial growth was quantitated fluorometrically. Therefore resazurin (0.6 mg/ml) was added in a volume of 20 μl to all wells 3 hours after inoculation, and the plates were re-incubated overnight. A change in colour from blue to pink indicated the growth of bacteria. The fluorescence was read in a computer-controlled fluorometer (Cytofluor Biosearch) at an excitation wavelength of 530 nm and an emission wavelength of 590 nm. The % growth inhibition achieved by the compounds was calculated according to standard methods. The IC90 (expressed in μg/ml) was defined as the 90% inhibitory concentration for bacterial growth.

[2] = tested on: Streptococcus pneumoniae (ATCC6305); assay: Microtitre plate assay, IC90 determination (SPN 6305); type: cell-based; settings: 90% inhibitory concentration for bacterial growth, 37° C., resazurin fluorescence; for IC90 SPN 6305: 24 hours; for IC90: Streptococcus pneumoniae, ATCC6305, 24 h
Experimental: as §1, §2

| IC90 STA 29213 [1] | IC90 SPN 6305 [2] | IC90 [1] | IC90 [2] | SMILES |
| --- | --- | --- | --- | --- |
| 1.8 µg/mL (≈ 3.17 µM) | 0.3 µg/mL (≈ 0.528 µM) |  |  | COc1nc2ccc(Br)cc2cc1C(c1ccccc1)C(O)(CCc1ccc(Cl)cc1)CCN(C)C (racemic) [Compound 55] |
|  | 0.4 µg/mL (≈ 0.664 µM) | 2.1 µg/mL (≈ 3.49 µM) |  | COc1nc2ccc(Br)cc2cc1C(c1ccc(Cl)cc1)C(O)(CCc1ccc(Cl)cc1)CCN(C)C (stereo not shown) [Compound 76] |
| 7.7 µg/mL (≈ 15.9 µM) | 1.9 µg/mL (≈ 3.92 µM) |  |  | CSc1nc2ccc(C)cc2cc1C(c1ccccc1)C(O)(CCc1ccccc1)CCN(C)C (stereo not shown) [Compound 30] |
| 1.5 µg/mL (≈ 3.27 µM) | 0.3 µg/mL (≈ 0.654 µM) |  |  | CNCCC(O)(CCc1ccc(F)cc1)C(c1ccccc1)c1cc2ccccc2nc1OC (stereo not shown) [Compound 38] |
| 1.5 µg/mL (≈ 2.79 µM) | 0.3 µg/mL (≈ 0.558 µM) |  |  | CNCCC(O)(CCc1ccc(F)cc1)C(c1ccccc1)c1cc2cc(Br)ccc2nc1OC (stereo not shown) [Compound 40] |
| 4.1 µg/mL (≈ 7.05 µM) | 2.1 µg/mL (≈ 3.61 µM) |  |  | COc1ccc(C(c2cc3cc(Br)ccc3nc2OC)C(O)(CCc2ccc(F)cc2)CCN(C)C)cc1 (stereo not shown) [Compound 85] |
| 42.6 µg/mL (≈ 79.4 µM) | 10.7 µg/mL (≈ 19.9 µM) |  |  | COc1nc2ccc(-c3cccs3)cc2cc1C(c1ccccc1)C(O)(CCc1ccccc1)CCN(C)C (racemic) [Compound 64] |
| 42.2 µg/mL (≈ 79.5 µM) | 10.6 µg/mL (≈ 20 µM) |  |  | COc1nc2ccc(-c3ccccc3)cc2cc1C(c1ccccc1)C(O)(CCc1ccccc1)CCN(C)C (racemic) [Compound 59] |
| 16.4 µg/mL (≈ 25.2 µM) | 2.6 µg/mL (≈ 3.99 µM) |  |  | COc1nc2ccc(Br)cc2cc1C(c1ccc(Cl)cc1)C(O)(CCc1cccc(OC(F)(F)F)c1)CCN(C)C (stereo not shown) [Compound 90] |
|  | 7.5 µg/mL (≈ 14.1 µM) |  |  | COc1nc2ccc(-c3cccnc3)cc2cc1C(c1ccccc1)C(O)(CCc1ccccc1)CCN(C)C (racemic) [Compound 61] |
| 9.0 µg/mL (≈ 15.8 µM) | 5.7 µg/mL (≈ 10 µM) |  |  | COc1nc2ccc(Br)cc2cc1C(c1ccccc1)C(O)(CCc1ccc(Cl)cc1)CCN(C)C (racemic) [Compound 56] |
| 2.6 µg/mL (≈ 4.52 µM) |  |  | 0.3 µg/mL (≈ 0.521 µM) | COc1nc2ccc(Br)cc2cc1C(c1ccccc1)C(O)(CCc1ccc(C(C)C)cc1)CCN(C)C (stereo not shown) [Compound 24] |
| 53.1 µg/mL (≈ 100 µM) | 10.6 µg/mL (≈ 20 µM) |  |  | COc1nc2ccc(-c3ccccc3)cc2cc1C(c1ccccc1)C(O)(CCc1ccccc1)CCN(C)C (racemic) [Compound 60] |
|  | 0.3 µg/mL (≈ 0.46 µM) | 32.7 µg/mL (≈ 50.2 µM) |  | COc1nc2ccc(Br)cc2cc1C(c1ccc(Cl)cc1)C(O)(CCc1cccc(OC(F)(F)F)c1)CCN(C)C (stereo not shown) [Compound 91] |
|  |  | 22.6 µg/mL (≈ 35.5 µM) | 2.3 µg/mL (≈ 3.62 µM) | COc1nc2ccc(Br)cc2cc1C(c1ccc(Cl)cc1)C(O)(CCc1ccc(C(F)(F)F)cc1)CCN(C)C (stereo not shown) [Compound 89] |
|  |  | 8.6 µg/mL (≈ 17.7 µM) | 8.6 µg/mL (≈ 17.7 µM) | COc1nc2ccc(CO)cc2cc1C(c1ccccc1)C(O)(CCc1ccccc1)CCN(C)C (stereo not shown) [Compound 58] |
| 10.9 µg/mL (≈ 22.5 µM) | 9.7 µg/mL (≈ 20 µM) |  |  | COc1ccc2nc(OC)c(C(c3ccccc3)C(O)(CCc3ccccc3)CCN(C)C)cc2c1 (stereo not shown) [Compound 4] |

| SMILES | IC90 STA 29213 [1] | IC90 SPN 6305 [2] | IC90 [1] | IC90 [2] |
| --- | --- | --- | --- | --- |
| COc1nc2ccc(Br)cc2cc1C(c1ccccc1)C(O)(CCc1ccc(F)cc1)CCN(C)C (stereo not shown) [Compound 25] | 7.8 µg/mL (≈ 14.1 µM) | 1.7 µg/mL (≈ 3.08 µM) |  |  |
| COc1nc2ccc(Br)cc2cc1C(c1ccccc1)C(O)(CCc1ccccc1)CCN(C)C (stereo not shown) [Compound 17] | 8.5 µg/mL (≈ 15.9 µM) | 4.8 µg/mL (≈ 9 µM) |  |  |
